The record followed here is article PMC6145842 (Biochemical and biophysical research communications, 2018).

Structures are written as SMILES.

The assay addresses T1, DXO (Mus musculus, UniProt O70348).
T1 sequence (O70348 1-397): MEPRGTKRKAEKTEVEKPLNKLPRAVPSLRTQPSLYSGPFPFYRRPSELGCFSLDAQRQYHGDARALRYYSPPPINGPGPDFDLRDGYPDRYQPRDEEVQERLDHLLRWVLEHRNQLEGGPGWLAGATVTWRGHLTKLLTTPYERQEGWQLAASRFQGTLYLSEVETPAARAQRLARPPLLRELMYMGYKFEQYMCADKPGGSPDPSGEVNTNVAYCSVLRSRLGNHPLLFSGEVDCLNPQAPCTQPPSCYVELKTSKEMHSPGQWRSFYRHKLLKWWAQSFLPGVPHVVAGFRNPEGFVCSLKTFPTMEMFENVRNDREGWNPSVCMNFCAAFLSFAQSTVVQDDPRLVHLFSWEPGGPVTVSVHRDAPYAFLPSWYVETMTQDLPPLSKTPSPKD
The experiment in a line: crystal structure at […] Å. Format: binding.

Usually Kd stands for a measure of binding affinity in units of concentration. Compound `Nc1ncnc2c1ncn2[C@@H]1O[C@H](COP(=O)(O)O)[C@@H](OP(=O)(O)O)[C@H]1O` [pAp, adenosine 3’,5’-bisphosphate] yielded a Kd of 20 to 30 mM.
